Experimental data reported in article PMC3431846, “2,3-Dihydro-1H-cyclopenta[b]quinoline Derivatives as Acetylcholinesterase Inhibitors—Synthesis, Radiolabeling and Biodistribution” (International Journal of Molecular Sciences, 2012).
Structures can show the parent of a compound that is named as a salt.

Legend:
acetylcholinesterase = conditions: in words; cited from earlier work
[1] = biological target: Acetylcholinesterase from Electrophorus electricus (electric eel) (Electrophorus electricus, UniProt O42275); assay: biochemical
[2] = biological target: Butyrylcholinesterase from equine serum (Equus caballus, UniProt P81908); assay: biochemical
[3] = Biodistribution of radioactivity in rats after intravenous 99mTc-6a; conditions: 99mTc-labelled, in words
Experimental: For biodistribution studies, male Wistar rats weighing 190–260 g were used. Prior to the experiment, the animals were fasted overnight (to empty the bowels), but had free access to water. All animal experiments were approved by the Ethics Committee of the Faculty of Pharmacy, Charles University, Hradec Kralove.
The agent was administered to rats intravenously in a volume of 0.2 mL. During the course of the experiments, each animal was placed in an individual cage. At various time points after injection, the carotid artery was exposed under ether anesthesia and a blood sample was collected in glass tubes containing dry heparin. The rats were sacrificed and dissected.
The results were expressed as mean ± standard deviations of at least four animals.

Sequence of Butyrylcholinesterase from equine serum (P81908 whole entry): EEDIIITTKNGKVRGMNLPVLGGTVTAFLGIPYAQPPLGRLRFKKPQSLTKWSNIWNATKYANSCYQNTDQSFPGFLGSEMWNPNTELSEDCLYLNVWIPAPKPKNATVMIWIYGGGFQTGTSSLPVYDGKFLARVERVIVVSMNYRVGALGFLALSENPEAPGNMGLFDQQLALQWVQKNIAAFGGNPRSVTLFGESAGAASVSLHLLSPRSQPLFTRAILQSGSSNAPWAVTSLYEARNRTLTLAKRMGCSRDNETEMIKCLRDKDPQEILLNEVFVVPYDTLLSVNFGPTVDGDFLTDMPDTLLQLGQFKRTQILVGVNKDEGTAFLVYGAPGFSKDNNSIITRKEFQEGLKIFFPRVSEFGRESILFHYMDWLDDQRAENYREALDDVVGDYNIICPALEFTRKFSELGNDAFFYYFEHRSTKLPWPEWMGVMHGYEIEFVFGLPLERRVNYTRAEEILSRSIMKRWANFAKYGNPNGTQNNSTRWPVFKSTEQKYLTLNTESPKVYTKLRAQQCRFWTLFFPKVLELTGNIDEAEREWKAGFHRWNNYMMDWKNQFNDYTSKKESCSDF
Sequence of Acetylcholinesterase from Electrophorus electricus (electric eel) (O42275 24-633): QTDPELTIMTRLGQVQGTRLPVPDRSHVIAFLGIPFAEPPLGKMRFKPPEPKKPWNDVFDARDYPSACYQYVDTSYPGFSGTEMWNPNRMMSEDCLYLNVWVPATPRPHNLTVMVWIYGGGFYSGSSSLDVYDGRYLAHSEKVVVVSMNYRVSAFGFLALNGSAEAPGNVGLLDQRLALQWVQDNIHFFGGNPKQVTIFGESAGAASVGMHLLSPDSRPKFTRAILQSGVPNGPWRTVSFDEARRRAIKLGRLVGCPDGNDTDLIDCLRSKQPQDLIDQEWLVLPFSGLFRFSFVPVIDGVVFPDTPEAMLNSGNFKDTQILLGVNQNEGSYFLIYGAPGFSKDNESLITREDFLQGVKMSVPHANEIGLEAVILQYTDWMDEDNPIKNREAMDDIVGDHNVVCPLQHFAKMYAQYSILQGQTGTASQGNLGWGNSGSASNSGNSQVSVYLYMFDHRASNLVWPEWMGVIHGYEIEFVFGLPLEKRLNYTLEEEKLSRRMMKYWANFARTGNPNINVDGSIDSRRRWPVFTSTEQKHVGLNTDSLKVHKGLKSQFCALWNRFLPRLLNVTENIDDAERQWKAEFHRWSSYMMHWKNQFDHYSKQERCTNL

Row | Structure (SMILES) | potency compared with tacrine (acetylcholinesterase) | IC50 [1] | IC50 [2] | blood radioactivity clearance [3]
1 | Nc1c2c(nc3cc(Cl)ccc13)CCCC2O (stereo not shown) [6-chlorotacrin-1-ol] | more potent than tacrine | – | – | –
2 | NNc1ccc(C(=O)NCCCCCNc2c3c(nc4ccccc24)CCC3)cn1 [Compound 6d, 6-Hydrazino-N-[5-(2,3-dihydro-1H-cyclopenta[b]quinolin-9-ylamino)pentyl]nicotinamide hydrochloride] | – | 7.84 ± 2.2 nM | 4240 ± 2.2 nM | –
3 | NNc1ccc(C(=O)NCCCNc2c3c(nc4ccccc24)CCC3)cn1 [Compound 6b, 6-Hydrazino-N-[3-(2,3-dihydro-1H-cyclopenta[b]quinolin-9-ylamino)propyl]nicotinamide hydrochloride] | – | 19.3 ± 1.1 nM | 197 ± 3.4 nM | –
4 | NNc1ccc(C(=O)NCCCCCCCCNc2c3c(nc4ccccc24)CCC3)cn1 [Compound 6g, 6-Hydrazino-N-[8-(2,3-dihydro-1H-cyclopenta[b]quinolin-9-ylamino)octyl]nicotinamide hydrochloride] | – | 5.17 ± 1.4 nM | 19600 ± 16.4 nM | –
5 | NNc1ccc(C(=O)NCCCCCCCNc2c3c(nc4ccccc24)CCC3)cn1 [Compound 6f, 6-Hydrazino-N-[7-(2,3-dihydro-1H-cyclopenta[b]quinolin-9-ylamino)heptyl]nicotinamide hydrochloride] | – | 17.6 ± 0.8 nM | 22700 ± 20.6 nM | –
6 | Cl.NNc1ccc(C(=O)NCCNc2c3c(nc4ccccc24)CCC3)cn1 [Compound 6a, 6-Hydrazino-N-[2-(2,3-dihydro-1H-cyclopenta[b]quinolin-9-ylamino)Ethyl]nicotinamide hydrochloride] | – | 31.5 ± 1.9 nM | 164 ± 1.6 nM | comparatively rapid
7 | NNc1ccc(C(=O)NCCCCCCCCCNc2c3c(nc4ccccc24)CCC3)cn1 [Compound 6h, 6-Hydrazino-N-[9-(2,3-dihydro-1H-cyclopenta[b]quinolin-9-ylamino)nonyl]nicotinamide hydrochloride] | – | 3.65 ± 0.5 nM | 17100 ± 21.3 nM | –
8 | NNc1ccc(C(=O)NCCCCNc2c3c(nc4ccccc24)CCC3)cn1 [Compound 6c, 6-Hydrazino-N-[4-(2,3-dihydro-1H-cyclopenta[b]quinolin-9-ylamino)butyl]nicotinamide hydrochloride] | – | 22.4 ± 1.7 nM | 2650 ± 9.5 nM | –
9 | NNc1ccc(C(=O)NCCCCCCNc2c3c(nc4ccccc24)CCC3)cn1 [Compound 6e, 6-Hydrazino-N-[6-(2,3-dihydro-1H-cyclopenta[b]quinolin-9-ylamino)hexyl]nicotinamide hydrochloride] | – | 41.6 ± 1 nM | 16600 ± 17.5 nM | –
10 | Nc1c2c(nc3cc(F)ccc13)CCCC2O (stereo not shown) [6-fluorotacrin-1-ol] | more potent than tacrine | – | – | –
